Test results taken from US10781224B2, “Bis(oxymethyl)phosphinic acid and biogenic metal salts thereof as regulators of plant growth and development” (priority 2016, dated 2020).

Tests used:
Format in all cases: in vivo
[1] = test system: corn (Krasnodar 385 MV variety); assay: Corn seed treatment with BHMPA salts: germination energy and germination rate
In short: (§1)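 Corn, winter wheat and rice seeds (50 per dish, on filter paper) were soaked for 1 h in BHMPA or its metal salts at 1·10^−6-1·10^−12%, with water as control. Germination energy was read on day 4 and germination rate on day 8 for wheat and day 7 for rice and corn, following GOST 12038-84, as the mean of four replicates.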

rice (Diamant variety) [2] = assay: Rice seed treatment with BHMPA salts: germination energy and germination rate
In short: as §1

rice (Diamant variety) [3] = assay: Rice seed treatment with BHMPA salts: germinating power
In short: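 Seeds (50 per Petri dish on two layers of filter paper) soaked 1 h in BHMPA or its Ca, Mg, Na, Co, Mn, Cu or Zn salts at 1·10^−6-1·10^−12%, with water controls. Germination energy read on day 4, germination on day 8 (wheat) or day 7 (rice, corn), as % means of four replicates. Germinating power taken as root and sprout length plus wet and dry mass per 100 seedlings.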

[4] = comparative study vs Melaphen, 1·10^−9% solution
[5] = rice seed treatment, solution 1 · 10^−9%
[6] = seed treatment, concentration 1 · 10^−6%
[7] = seed treatment, concentration 1 · 10^−7%
[8] = seed treatment, concentration 1 · 10^−8%
[9] = seed treatment, concentration 1 · 10^−9%
[10] = seed treatment, concentration 1 · 10^−10%
[11] = seed treatment, concentration 1 · 10^−11%
[12] = seed treatment, concentration 1 · 10^−12%
[13] = rice seed treatment, comparison with Melaphen (Table XXXIII), solution 1 · 10^−9%
[14] = rice seeds, solution concentration 1 · 10^−6%
[15] = rice seeds, solution concentration 1 · 10^−7%

Structure (SMILES): O.O.O=P([O-])(CO)CO.O=P([O-])(CO)CO.[Mn+2] [Mn-salt, Manganese BHMPA Salt]
- Germination energy ([1]; 1·10^−6% solution): 81.0%
- Germination rate ([1]; 1·10^−6% solution): 83.3%
- Germination energy ([1]; 1·10^−7% solution): 82.3%
- Germination rate ([1]; 1·10^−7% solution): 85.0%
- Germination energy ([1]; 1·10^−8% solution): 84.7%
- Germination rate ([1]; 1·10^−8% solution): 87.5%
- Germination energy ([1]; 1·10^−9% solution): 87.7%
- Germination rate ([1]; 1·10^−9% solution): 88.7%
- Germination rate ([1]; 1·10^−9% solution, listed as Mn): 90.0%
- Germination energy ([1]; 1·10^−10% solution): 85.0%
- Germination rate ([1]; 1·10^−10% solution): 87.5%
- Germination energy ([1]; 1·10^−11% solution): 82.7%
- Germination rate ([1]; 1·10^−11% solution): 85.3%
- Germination energy ([1]; 1·10^−12% solution): 80.3%
- Germination rate ([1]; 1·10^−12% solution): 83.0%
- Germination energy [1, 4]: 87.3%
- Germination rate [1, 4]: 95.0%
- Germination energy, % (rice (Diamant variety) [2]; [5]): 86.7%
- Germination rate, % (rice (Diamant variety) [2]; [5]): 93.0%
- Germination energy (rice (Diamant variety) [2]; rice, 1·10^−9% solution): 85.3%
- Germination rate (rice (Diamant variety) [2]; rice, 1·10^−9% solution): 91.7%
- Germination energy (rice (Diamant variety) [2]; [6]): 77.0%
- Germination rate (rice (Diamant variety) [2]; [6]): 82.7%
- Germination energy (rice (Diamant variety) [2]; [7]): 79.3%
- Germination rate (rice (Diamant variety) [2]; [7]): 85.0%
- Germination energy (rice (Diamant variety) [2]; [8]): 82.7%
- Germination rate (rice (Diamant variety) [2]; [8]): 86.7%
- Germination energy (rice (Diamant variety) [2]; [9]): 85.3%
- Germination rate (rice (Diamant variety) [2]; [9]): 91.7%
- Germination energy (rice (Diamant variety) [2]; [10]): 83.3%
- Germination rate (rice (Diamant variety) [2]; [10]): 88.3%
- Germination energy (rice (Diamant variety) [2]; [11]): 81.0%
- Germination rate (rice (Diamant variety) [2]; [11]): 86.0%
- Germination energy (rice (Diamant variety) [2]; [12]): 78.0%
- Germination rate (rice (Diamant variety) [2]; [12]): 83.0%
- optimum concentration for treating rice seeds before sowing (rice (Diamant variety) [3]; rice): 1·10^−9%
- Length, root (rice (Diamant variety) [3]; [13]): 6.8 cm
- Length, root, + % to control (rice (Diamant variety) [3]; [13]): 42%
- Length, sprout (rice (Diamant variety) [3]; [13]): 4.2 cm
- Length, sprout, + % to control (rice (Diamant variety) [3]; [13]): 35%
- Mass, dry, root (rice (Diamant variety) [3]; [13]): 0.24 g/100 plantlings
- Mass, dry, root, + % to control (rice (Diamant variety) [3]; [13]): 14%
- Mass, dry, sprout (rice (Diamant variety) [3]; [13]): 0.28 g/100 plantlings
- Mass, dry, sprout, + % to control (rice (Diamant variety) [3]; [13]): 12%
- Mass, wet, root (rice (Diamant variety) [3]; [13]): 1.34 g/100 plantlings
- Mass, wet, root, + % to control (rice (Diamant variety) [3]; [13]): 37%
- Mass, wet, sprout (rice (Diamant variety) [3]; [13]): 2.34 g/100 plantlings
- Mass, wet, sprout, + % to control (rice (Diamant variety) [3]; [13]): 55%
- Length, root (rice (Diamant variety) [3]; [14]): 6.2 cm
- Length, root, + % to control (rice (Diamant variety) [3]; [14]): 3%
- Length, sprout (rice (Diamant variety) [3]; [14]): 2.7 cm
- Length, sprout, + % to control (rice (Diamant variety) [3]; [14]): 8%
- Mass, dry, root (rice (Diamant variety) [3]; [14]): 0.22 g/100 plantlings
- Mass, dry, root, + % to control (rice (Diamant variety) [3]; [14]): 10%
- Mass, dry, sprout (rice (Diamant variety) [3]; [14]): 0.29 g/100 plantlings
- Mass, dry, sprout, + % to control (rice (Diamant variety) [3]; [14]): 11.5%
- Mass, wet, root (rice (Diamant variety) [3]; [14]): 1.13 g/100 plantlings
- Mass, wet, root, + % to control (rice (Diamant variety) [3]; [14]): 15%
- Mass, wet, sprout (rice (Diamant variety) [3]; [14]): 1.80 g/100 plantlings
- Mass, wet, sprout, + % to control (rice (Diamant variety) [3]; [14]): 5%
- Length, root (rice (Diamant variety) [3]; [15]): 6.4 cm
- Length, root, + % to control (rice (Diamant variety) [3]; [15]): 7%
- Length, sprout (rice (Diamant variety) [3]; [15]): 2.9 cm
- Length, sprout, + % to control (rice (Diamant variety) [3]; [15]): 16%
- Mass, dry, root (rice (Diamant variety) [3]; [15]): 0.25 g/100 plantlings
- Mass, dry, root, + % to control (rice (Diamant variety) [3]; [15]): 25%
- Mass, dry, sprout (rice (Diamant variety) [3]; [15]): 0.36 g/100 plantlings
- Mass, dry, sprout, + % to control (rice (Diamant variety) [3]; [15]): 38%
- Mass, wet, root (rice (Diamant variety) [3]; [15]): 1.21 g/100 plantlings
